{
  "source": "paper PMC10049026",
  "about": "“In Silico Binding of 2-Aminocyclobutanones to SARS-CoV-2 Nsp13 Helicase and Demonstration of Antiviral Activity” (International Journal of Molecular Sciences, 2023)",
  "key": {"[1]": {"tested_on": "Omicron Variant hCoV-19/USA/MD-HP20874/2021 (Lineage B.1.1.529)", "assay": "microbe, parasite or virus in culture", "type": "cell-based, SARS-CoV-2", "settings": "Severe acute respiratory syndrome coronavirus 2"}, "[2]": {"tested_on": "Delta Variant hCoV-19/USA/MD-HP05285/2021 (Lineage B.1.617.2)", "assay": "microbe, parasite or virus in culture", "type": "cell-based, SARS-CoV-2", "settings": "for IC50: Severe acute respiratory syndrome coronavirus 2"}},
  "note": "Like-named read-outs stand apart in the source and are kept apart here.",
  "data": [
    {"smiles": "Cc1ccc(S(=O)(=O)N[C@@H](Cc2c[nH]c3ccccc23)C(=O)NC2CCC2=O)cc1", "note": "(stereo partly drawn) [Compound 4, (2S)-3-(1H-Indol-3-yl)-2-((4-methylphenyl)sulfonamido)-N-(2-oxocyclobutyl)propanamide]", "values": [
      {"measurement": "IC50", "setting": "[1]; read-out: IC50, Omicron VOC (Figure 5)", "value": "2.59 ± 1.28", "unit": "µM"},
      {"measurement": "IC50", "setting": "[1]; read-out: IC50 Values For inhibition of SARS-CoV-2 Mediated Cell Death, Omicron", "value": 1.58, "unit": "µM"},
      {"measurement": "difference in IC50, variants vs wild-type", "setting": "[2]", "value": "10 to 20", "unit": "fold"},
      {"measurement": "IC50", "setting": "[2]; read-out: IC50, Delta VOC (Figure 5)", "value": "0.943 ± 0.526", "unit": "µM"},
      {"measurement": "IC50", "setting": "[2]; read-out: IC50 Values For inhibition of SARS-CoV-2 Mediated Cell Death, Delta", "value": 0.22, "unit": "µM"}
    ]}
  ]
}
